Assay results from article PMC7588595, “Small-molecule active pharmaceutical ingredients of approved cancer therapeutics inhibit human aspartate/asparagine-β-hydroxylase” (Bioorganic & Medicinal Chemistry, 2020).
Where a name gives a salt, the structure may show the parent alone. Read-outs that look alike come from different tables or passages of the source.

Target: T1, human AspH (His6-AspH315–758) (Homo sapiens, UniProt Q12797)
T1 construct: N-Terminally His6-tagged human AspH315–758 (His6-AspH315–758) was produced in Escherichia coli BL21 (DE3) cells; made in house; host or cells: Escherichia coli BL21 (DE3), pET-28a(+) vector
T1 sequence (Q12797 315-758): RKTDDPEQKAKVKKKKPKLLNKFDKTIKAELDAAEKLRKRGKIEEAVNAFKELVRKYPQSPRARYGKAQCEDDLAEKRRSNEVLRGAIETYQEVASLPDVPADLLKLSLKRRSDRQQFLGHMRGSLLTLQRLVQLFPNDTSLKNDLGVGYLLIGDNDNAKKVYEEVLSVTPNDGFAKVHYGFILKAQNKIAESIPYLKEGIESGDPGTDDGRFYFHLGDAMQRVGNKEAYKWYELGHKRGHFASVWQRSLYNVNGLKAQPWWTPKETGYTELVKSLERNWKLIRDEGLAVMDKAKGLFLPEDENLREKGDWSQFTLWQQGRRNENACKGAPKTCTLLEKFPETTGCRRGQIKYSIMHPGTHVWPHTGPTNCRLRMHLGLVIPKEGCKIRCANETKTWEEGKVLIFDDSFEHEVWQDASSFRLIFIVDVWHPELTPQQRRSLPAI
Assay: SPE-MS AspH inhibition assay (hFX-CP101-119 substrate hydroxylation)
Assay type: biochemical

[1] = AspH-inhibitor screening, 384-well Plate 1
[2] = AspH-inhibitor screening, 384-well Plate 1, substrate conversion
[3] = AspH-inhibitor screening, Plate 1-duplicate
[4] = AspH-inhibitor screening, Plate 1-duplicate, substrate conversion

Plate 1 (% inhibition) [1] [%] | Plate 1 (% conversion) [2] [%] | Plate 1-duplicate (% inhibition) [3] [%] | Plate 1-duplicate (% conversion) [4] [%] | SMILES | Plate 1 (% conversion) [%] | Plate 1 (% inhibition) [%] | Plate 1-duplicate (% conversion) [%] | Plate 1-duplicate (% inhibition) [%]
-2.58 | 50.94 | -3.79 | 53.92 | CC1(COc2ccc3c(c2)ncn3-c2ccc3cccc(N4CCC(N)CC4)c3n2)COC1 [Crenolanib] |  |  |  | 
-0.37 | 49.92 | -2.41 | 53.24 | CC(=O)Nc1cccc(-n2c(=O)n(C3CC3)c(=O)c3c(Nc4ccc(I)cc4F)n(C)c(=O)c(C)c32)c1 [GSK1120212_Trametinib] |  |  |  | 
-0.61 | 50.03 | 4.67 | 49.73 | Oc1ncnc2[nH]ncc12 [Allopurinol] |  |  |  | 
-40.27 | 68.35 | -34.40 | 69.10 | CCN(CC)CCNC(=O)c1c(C)[nH]c(/C=C2\C(=O)Nc3ccc(F)cc32)c1C [Sunitinib] |  |  |  | 
14.61 | 43.00 | 8.69 | 47.73 | CS(=O)(=O)OCCCCOS(C)(=O)=O [Busulfan] |  |  |  | 
-2.24 | 50.79 | -16.67 | 60.31 | CCCCC(=O)OCC(=O)[C@]1(O)Cc2c(O)c3c(c(O)c2[C@@H](O[C@H]2C[C@H](NC(=O)C(F)(F)F)[C@H](O)[C@H](C)O2)C1)C(=O)c1c(OC)cccc1C3=O [Valrubicin] |  |  |  | 
4.05 | 47.88 | 4.06 | 50.03 | CC1(C)NC(=O)N(c2ccc([N+](=O)[O-])c(C(F)(F)F)c2)C1=O [Nilutamide] |  |  |  | 
0.59 | 49.48 | -0.34 | 52.21 | CNC(=O)c1ccccc1Sc1ccc2c(/C=C/c3ccccn3)n[nH]c2c1 [Axitinib] |  |  |  | 
1.37 | 49.12 | 2.57 | 50.77 | CS(=O)(=O)N1CCN(Cc2cc3nc(-c4cccc5[nH]ncc45)nc(N4CCOCC4)c3s2)CC1 [GDC-0941_Pictilisib] |  |  |  | 
-8.28 | 53.57 | -15.35 | 59.65 | Cc1ccc(-c2cc(C(F)(F)F)nn2-c2ccc(S(N)(=O)=O)cc2)cc1 [Celecoxib] |  |  |  | 
-0.43 | 49.95 | -2.73 | 53.40 | COc1cc([C@@H]2c3cc4c(cc3[C@@H](O[C@@H]3O[C@@H]5CO[C@@H](C)O[C@H]5[C@H](O)[C@H]3O)[C@H]3COC(=O)[C@H]23)OCO4)cc(OC)c1O [Etoposide] |  |  |  | 
10.59 | 44.86 | 16.18 | 44.01 | C[C@@H](C(=O)O)c1ccc(-c2ccccc2)c(F)c1 [(R)-Flurbiprofen (Tarenflurbil)] |  |  |  | 
-0.51 | 49.98 | 13.40 | 45.39 | Cc1c(Cn2c(C)nc3c(C(=O)O)cc(N4CCOCC4)cc32)cccc1C(F)(F)F [GSK2636771] |  |  |  | 
-12.94 | 55.72 | -30.32 | 67.08 | Cc1ccc(C(=O)N(CCCN)[C@@H](c2oc3cc(Cl)ccc3c(=O)c2Cc2ccccc2)C(C)C)cc1 [SB 743921] |  |  |  | 
-0.37 | 49.92 | -28.79 | 66.32 | Cc1ccc(Nc2nccc(N(C)c3ccc4c(C)n(C)nc4c3)n2)cc1S(N)(=O)=O.Cl [Pazopanib hydrochloride] |  |  |  | 
-7.19 | 53.07 | -12.48 | 58.23 | CNC(=O)c1ccc(N2C(=S)N(c3ccc(C#N)c(C(F)(F)F)c3)C(=O)C2(C)C)cc1F [MDV3100_Enzaluamide] |  |  |  | 
5.31 | 47.30 | 8.11 | 48.02 | Nc1nc(OCc2cc(Br)cs2)c2[nH]cnc2n1 [Lomeguatrib] |  |  |  | 
59.99 | 22.05 | 68.69 | 17.97 | CCN(CC)CCOc1ccc(C(=C(Cl)c2ccccc2)c2ccccc2)cc1 [Clomifene citrate] |  |  |  | 
13.78 | 43.39 | 14.13 | 45.03 | C#CCC(Cc1cnc2nc(N)nc(N)c2n1)c1ccc(C(=O)N[C@@H](CCC(=O)O)C(=O)O)cc1 (stereo partly shown) [Pralatrexate] |  |  |  | 
 |  |  |  | C[C@]12CC[C@@H]3c4ccc(OC(=O)N(CCCl)CCCl)cc4CC[C@H]3[C@@H]1CC[C@@H]2OP(=O)(O)O [Estramustine sodium phosphate] | 17.18 | 70.54 | 20.11 | 64.39
0.24 | 49.64 | 5.52 | 49.30 | CNNCc1ccc(C(=O)NC(C)C)cc1 [Procarbazine hydrochloride] |  |  |  | 
4.97 | 47.46 | 4.58 | 49.77 | CC(C)n1nc(-c2ccc3oc(N)nc3c2)c2c(N)ncnc21 [INK128] |  |  |  | 
38.69 | 31.88 | 34.01 | 35.17 | Cn1c(Nc2ccc(C(F)(F)F)cc2)nc2cc(Oc3ccnc(-c4ncc(C(F)(F)F)[nH]4)c3)ccc21 [RAF265] |  |  |  | 
2.44 | 48.62 | 1.54 | 51.28 | Cc1c(CN2CCN(C(=O)[C@H](C)O)CC2)sc2c(N3CCOCC3)nc(-c3cnc(N)nc3)nc12 [GDC-0980] |  |  |  | 
17.64 | 41.61 | 12.26 | 45.96 | Nc1ncn([C@@H]2O[C@H](CO)[C@@H](O)[C@H]2O)c(=O)n1 [Azacitidine] |  |  |  | 
-13.29 | 55.89 | -15.22 | 59.59 | CN1CCc2c(c3ccccc3n2Cc2ccc(C(=O)NO)cc2)C1.Cl [Tubastatin A HCl] |  |  |  | 
-14.51 | 56.45 | 7.27 | 48.44 | CC(=O)O[C@]1(C(C)=O)CC[C@H]2[C@@H]3C=C(C)C4=CC(=O)CC[C@]4(C)[C@H]3CC[C@@]21C [Megestrol acetate] |  |  |  | 
0.59 | 49.48 | 1.33 | 51.38 | C[C@@H]1C[C@H]2[C@@H]3CCC4=CC(=O)C=C[C@]4(C)[C@@]3(F)[C@@H](O)C[C@]2(C)[C@@]1(O)C(=O)CO [Dexamethasone (Decadron)] |  |  |  | 
17.02 | 41.89 | 9.37 | 47.39 | CNCc1ccc(-c2[nH]c3cc(F)cc4c3c2CCNC4=O)cc1 [AG-014699_Rucaparib] |  |  |  | 

SMILES | Plate 1 (% inhibition) [1] [%] | Plate 1 (% conversion) [2] [%] | Plate 1-duplicate (% inhibition) [3] [%] | Plate 1-duplicate (% conversion) [4] [%] | Plate 1 (% conversion) [%] | Plate 1 (% inhibition) [%] | Plate 1-duplicate (% conversion) [%] | Plate 1-duplicate (% inhibition) [%]
C[C@]12O[C@H](C[C@]1(O)CO)n1c3ccccc3c3c4c(c5c6ccccc6n2c5c31)CNC4=O [Lestaurtinib] | 20.36 | 40.35 | 16.08 | 44.07 |  |  |  | 
O=C(Nc1ccncc1)C(=O)c1cn(Cc2ccc(Cl)cc2)c2ccccc12 [Indibulin] | 45.36 | 28.80 | 2.65 | 50.73 |  |  |  | 
CN(C)CCN1C(=O)c2cccc3cc(N)cc(c23)C1=O [Amonafide] | 4.40 | 47.72 | 3.28 | 50.42 |  |  |  | 
CC(=O)OC[C@H]1O[C@@H]([S-])[C@H](OC(C)=O)[C@@H](OC(C)=O)[C@@H]1OC(C)=O.CCP(CC)CC.[Au+] [Auranofin] | 60.34 | 21.89 | 55.51 | 24.51 |  |  |  | 
CC1(C)CNc2cc(NC(=O)c3cccnc3NCc3ccncc3)ccc21.O=P(O)(O)O.O=P(O)(O)O [Motesanib Diphosphate (AMG-706)] | 35.35 | 33.43 | 26.44 | 38.93 |  |  |  | 
